Source: patent US5380651A, “Method of determining odorant compounds and antagonists of odorants using a primary culture of olfactory neurons” (The Johns Hopkins University, priority 1993, dated 1995)
“Also recorded” adds a separate entry of the source.

Experiments:
[1] = system: olfactory neurons (primary cultures); test: effect of substrate matrix substances on morphology and plating efficiency of olfactory neurons; type: cell-based, rat; conditions: for plating efficiency / process (neurite) outgrowth: coated slides, phase contrast and anti-vimentin immunofluorescence
Method: To determine the role of substrate matrix substances on plating efficiency and on cellular selection, a number of different substrates were tested.
Two chamber slides were pretreated in a number of ways. For laminin coating, 1 ml of MDV containing 25 ug/ml laminin was plated onto glass two-chamber slides overnight at 37° C.; before use, the slides were rinsed with MDV. For fibronectin, slides were treated with a solution containing 1 ml of MDV containing 20 ug/ml fibronectin (Collaborative Research), incubated overnight at 37° C., and rinsed with MDV prior to use. For polyornithine (PORN, Sigma Chemicals), a solution at a concentration of 1 mg/ml PORN in deionized distilled water was added to slides, incubated 1 hr at 37° C., rinsed twice with deionized distilled water, and rinsed once with MDV prior to use. When laminin was used on PORN-treated slides, slides were treated with PORN and then laminin in the usual manner. Coating of slides with poly-D-lysine was performed analogous to treatment with polyornithine. Heparan sulfate was diluted in MDV to a concentration of 10 ug/ml and 1 ml was placed on a slide, maintained overnight at 37° C., and rinsed with deionized distilled water prior to use. Collagen (Gibco) or collagen IV (Collaborative Research) was prepared as a 50 ug/ml solution in deionized distilled water and 1 ml of this solution utilized per slide. In the case of collagen, the solution was allowed to air dry. Collagen IV was maintained overnight at room temperature, aspirated, air dried and then rinsed twice with deionized distilled water prior to use. When laminin was used with collagen IV, collagen IV was prepared as described, and laminin was subsequently added in the usual manner. Matrigel (Collaborative Research) was utilized according to manufacturer's instructions.
Primary cultures were prepared as describe above and plated onto a number of different substrates and examined by phase contrast as well as immunofluorescence with antivimentin antisera (FIG. 6).
Matrigel was also examined as a substrate (FIG. 7).

[2] = system: Primary olfactory neurons; test: cyclic AMP levels (RIA) in primary olfactory neurons exposed to odorant; type: cell-based, rat; conditions: 10 uM IBMP
Source text: Olfactory tissue from neonatal rats was collected, minced, dissociated in enzymes and plated on chamber slides pretreated with laminin as described below.
Approximately 3 litters or 28-32 pups were used per prep. The 2-3 day old rat pups were sacrificed by decapitation, and olfactory tissue dissected and immediately placed in modified Eagle's medium (MEM) containing 4.8 g/l of HEPES buffer, designated MEM-AIR. The turbinates were transferred twice through fresh MEM-AIR to minimize contamination. Tissue was then centrifuged at 700×g for 7 min. After the supernatant was decanted, the tissue was minced to achieve tissue fragments of approximately 1 mm in size, resuspended in MEM-AIR and centrifuged at 700×g for 7 min. Tissue was then placed in 30 ml of MEM-AIR containing 1% (w/v) BSA, RIA grade (Sigma, St. Louis, Mo.), 1 mg/ml hyaluronidase (Sigma), 50 ug/ml DNAse (Sigma), 1 mg/ml collagenase (Worthington Biochemicals, Freehold, N.J.), and 5 mg/ml dispase (Boehringer-Mannheim Biochemicals, Indianapolis, Ind.), and incubated with agitation for 1 hr at 37° C. At the end of incubation, the cell suspension was triturated 10 times with a 10 ml plastic piper and passed through a 150 micron wire mesh. The cell suspension was then centrifuged at 500×g for 5 min. […]

NG-108 cells = test: cyclic AMP levels (RIA) in NG-108 cells exposed to odorant; type: cell-based; conditions: similar treatment
[3] = system: olfactory neurons (primary cultures); test: effect of NGF on olfactory neuron survival and neurite extension; type: cell-based, rat
Method: Approximately 3 litters or 28-32 pups were used per prep. The 2-3 day old rat pups were sacrificed by decapitation, and olfactory tissue dissected and immediately placed in modified Eagle's medium (MEM) containing 4.8 g/l of HEPES buffer, designated MEM-AIR. The turbinates were transferred twice through fresh MEM-AIR to minimize contamination. Tissue was then centrifuged at 700×g for 7 min. After the supernatant was decanted, the tissue was minced to achieve tissue fragments of approximately 1 mm in size, resuspended in MEM-AIR and centrifuged at 700×g for 7 min. Tissue was then placed in 30 ml of MEM-AIR containing 1% (w/v) BSA, RIA grade (Sigma, St. Louis, Mo.), 1 mg/ml hyaluronidase (Sigma), 50 ug/ml DNAse (Sigma), 1 mg/ml collagenase (Worthington Biochemicals, Freehold, N.J.), and 5 mg/ml dispase (Boehringer-Mannheim Biochemicals, Indianapolis, Ind.), and incubated with agitation for 1 hr at 37° C. At the end of incubation, the cell suspension was triturated 10 times with a 10 ml plastic piper and passed through a 150 micron wire mesh. The cell suspension was then centrifuged at 500×g for 5 min. The supernatant was aspirated and the cell pellet resuspended in plating medium composed of modified Eagle's medium containing D-valine (MDV, Gibco, Grand Island, N.Y.) containing 15% (v/v) dialyzed fetal calf serum (dFCS, Gibco), 5% (v/v) NU serum (Collaborative Research, Bedford, Mass.), 10 uM cytosine arabinoside (ara C) and 25 ng/ml nerve growth factor (NGF, Collaborative Research). After resuspension, cells were successively filtered through 50 micron and 10 micron nylon mesh filters (Small Parts, Miami, Fla.), to remove any remaining undigested clumps of cells and epithelial cells. Cells were plated at a density of 1×10^6 cells per cm^2 into tissue culture dish (Falcon, Lincoln Park, N.J.) or Labtek tissue culture slides (Nunc, Naperville, Ill.) coated with MDV containing laminin at 25 ug/ml (Collaborative Research). Cultures were placed in a humidified 37° C. incubator receiving 5% CO2. […]

[4] = without NGF vs 25 ng/ml NGF, by 3 days in culture

Molecule: collagen
- plating efficiency [1]: somewhat better plating efficiency than poly-D-lysine, polyornithine or heparan-sulfate
- process (neurite) outgrowth [1]: process outgrowth is still stunted

Molecule: laminin
- plating efficiency [1]: optimal plating efficiency
- neurite extension and aggregation of cells ([1]; duplicate cell suspensions, laminin vs matrigel): cells extend neurites in a random fashion, with no tendency to reaggregate

Molecule: COc1nccnc1CC(C)C [IBMP, 2-isobutyl-3-methoxypyrazine]
- change of intracellular cyclic AMP levels [2]: rapid, transient rise in intracellular cyclic AMP levels
- change of cyclic AMP levels (NG-108 cells): does not alter cyclic AMP levels

Molecule: fibronectin
- process (neurite) outgrowth [1]: the processes are shorter

B1: NGF: nerve growth factor (NGF, Collaborative Research) (protein, UniProt P01139 122-241, looked up)
Beta-nerve growth factor: SSTHPVFHMGEFSVCDSVSVWVGDKTTATDIKGKEVTVLAEVNINNSVFRQYFFETKCRASNPVESGCRGIDSKHWNSYCTTTHTFVKALTTDEKQAAWRFIRIDTACVCVLSRKATRRG
modifications: Beta-nerve growth factor
- role in olfactory neuronal survival and neurite extension ([3]; 25 ng/ml NGF in medium): necessary for survival of olfactory neurons; also recorded: affects both olfactory neuronal survival and neurite extension in culture
- decrease of cell viability in cells maintained without NGF [3, 4]: approximately 85%
- process extension in cells maintained without NGF [3, 4]: lose process extension
